From patent US20220227761A1, “OXOACRIDINYL ACETIC ACID DERIVATIVES AND METHODS OF USE” (STINGTHERA, INC., priority 2019, published 2022)
Several values for one entry are separate records, joined by “and”; a condition that tells them apart may be missing. Identical values can stand only once.

Key:
hSTING-R232 (aa140-379) = hSTING-R232 (aa140-379) (Homo sapiens, UniProt Q86WV6, H232R); test: STING differential scanning fluorimetry (DSF) assay, hSTING WT; settings: shift in melting temperature apo vs ligand-bound
Sequence of hSTING-R232 (aa140-379) (Q86WV6 140-379 H232R): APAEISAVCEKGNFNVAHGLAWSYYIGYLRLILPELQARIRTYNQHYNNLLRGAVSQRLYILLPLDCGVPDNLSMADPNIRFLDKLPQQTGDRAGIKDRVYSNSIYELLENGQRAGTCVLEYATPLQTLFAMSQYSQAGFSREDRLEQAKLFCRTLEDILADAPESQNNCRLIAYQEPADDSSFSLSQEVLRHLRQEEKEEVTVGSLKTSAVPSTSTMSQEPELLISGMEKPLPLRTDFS
Procedure: A STING DSF assay was performed to determine protein thermostability shift in response to small molecule ligand binding. A STING thermnostability shift assay based on differential scanning fluorimetry was used to measure (1) the net shift in melting temperature (ΔTm) between the apo and ligand-bound states of the STING protein and (2) the concentration of the thermal denaturation transition (EC50) as a surrogate measure of binding affinity (Kd). […] Protein in assay buffer was transferred to a 384 well plate and incubated with the hydrophobic fluorescent dye SYBR Orange. A temperature ramp was applied to the plate and the resulting dye fluorescence was plotted as a function of temperature. The first derivative of this function (dF/dT) was then used to extrapolate the melting temperature of the protein at various concentrations of compound and determine the thermal denaturation profile of a protein/compound complex.
5 μM purified Target STING Protein • 3. 8 μM Sypro Orange Dye • 4. Buffer: 100 mM NaCl, 30 mM HEPES, pH 7.5 • 5. Thermal Ramp: 0.5° C./min • 6. <1% DMSO • 7. 11 point, 2 fold dilution, duplicate, 300 μM high concentrations • 8.

[1] = molecular target: human STING protein (140-379), WT (Homo sapiens, UniProt Q86WV6, H232R); test: Radiometric filtration binding competition assay (FBA), hSTING-WT; settings: WT-hSWAT IC50 (μM), WT_FBA_HIS-SUMO-hSWAT; wild-type human STING; competition with [H3] 2′3′cGAMP
Sequence of human STING protein (140-379), WT (Q86WV6 140-379 H232R): as above

[2] = tested on: STING protein; IRF/IFN signaling in THP-1 R232 cells; test: Cell based reporter assay, THP-1 R232 IRF-luc; settings: Homo sapiens, THP1-dual-KI R232 cells, IRF luciferase reporter; for Emax: maximum measured activity, read-out: THP 1-dual-KI R232_IRF(Luciferase)_Activity Maximum measured (%); for IC50: read-out: THP 1-dual-KI R232_IRF(Luciferase) IC50
Text: Cell reporter assays were developed to measure the ability of compounds of the application to activate the STING protein and activate both IRF/IFN and the NFkB signaling pathways in the myeloid derived cell line THP-1, which is commercially available from several suppliers. Briefly, THP-1 monocytes were transfected and selected for stable integration of 2 reporter constructs. Clones incorporating stably integrated vectors were further selected by antibiotic resistance to blastocidin and zeocin. The reporter constructs included: (1) firefly luciferase reporter gene under the control of an ISG54 promoter fused to five interferon (IFN)-stimulated response elements to measure IRF transcription factor binding activity and (2) secreted embryonic alkaline phosphatase reporter gene under transcription control of an IFN-beta minimal promoter fused to 5 copies of the NFkB consensus transcriptional response element and 3 copies of the c-Rel binding site.
The resulting THP-1 cell line was further modified to incorporate 3 amino acid point mutations (H71R A230G Q293R). This modification of the native TMEM173 gene in THP-1 cells (HAQ) was designed to produce a cell reporter that expressed the most common allelic variant in the human population (THP-1 R232, available from InvivoGen). Alternatively, the TMEM173 gene was knocked out to provide a congenic control to counter-screen for compound activation that was independent of the STING protein (THP-1 STING KO).
Once cell lines were established, reporter assay protocols were developed and optimized to screen small molecule compounds for agonist activity. Assay optimization for efficacy and Z′ value included titration of the following parameters:
• 1. Cell pre-activation with PMA • 2. Cell seeding density • 3. DMSO tolerance • 4. Media selection • 5. FBS concentration • 6. Incubation time • 7. Co-Assessment of cell viability by CTG assay • 8. Appropriate HPE and ZPE controls • 9. Dose Response Titration
• 1. No pre-activation with PMA • 2. 5×10^4 cells/well in 96 well plate format • 3. <0.5% DMSO • 4. RPMI 1640+2.5 mg/ml glucose • 5. 10% FBS • 6. 14-18 hr incubation • 7. Cell Titer Glo reagent (Promega) following supernatant removal • 8. […] 8 point, 2 fold, duplicate starting at 150 μM

SMILES | WT_DSF_hSWAT Tm Shift (° C.) (hSTING-R232 (aa140-379)) | IC50 [1] | Emax [2] [%] | IC50 [2] [µM]
COc1c(Cl)ccc2c(=O)c3ccc(Br)cc3n(CC(=O)O)c12 [Compound 66] | C (“C” = 2-7° C.) | 100 to 300 µM |  | 
CN(C)c1c(Cl)ccc2c(=O)c3ccc(C4CC4)cc3n(CC(=O)O)c12 [Compound 36] | D (“D” >7° C.) | < 20 µM | > 50 | < 50
CN(C)c1c(Cl)ccc2c(=O)c3ccc(-c4cc[nH]c(=O)c4)cc3n(CC(=O)O)c12 [Compound 69] | D (“D” >7° C.) | < 20 µM | > 50 | < 50
COc1c(Cl)ccc2c(=O)c3ccc(C4CCC(N5CCN(C)CC5)CC4)cc3n(CC(=O)O)c12 (centres unmarked) [Compound 27] | C (“C” = 2-7° C.) | 20 to 100 µM |  | 
CN(C)c1c(Cl)ccc2c(=O)c3ccc(-c4cc[nH]c4)cc3n(CC(=O)O)c12 [Compound 14] | D (“D” >7° C.) | < 20 µM | > 50 | < 50
COc1cc2c(=O)c3ccc(Cl)c(N(C)C)c3n(CC(=O)O)c2cc1OC [Compound 1] | B (“B” = 0-2° C.) | < 20 µM | 5 to 25 | > 150
CN(C)c1c(Cl)ccc2c(=O)c3ccc(C4(C)CC4)cc3n(CC(=O)O)c12 [Compound 85] |  | < 20 µM | > 50 | < 50
CN(C)c1c(Cl)ccc2c(=O)c3ccc(-c4cccnc4)cc3n(CC(=O)O)c12 [Compound 9] | C (“C” = 2-7° C.) | < 20 µM | > 50 | < 50
CN(C)c1c(Cl)ccc2c(=O)c3ccc(Nc4c(F)cccc4F)cc3n(CC(=O)O)c12 [Compound 92] | D (“D” >7° C.) | < 20 µM | > 50 | < 50
CN(C)c1c(Cl)ccc2c(=O)c3ccc(C(C)(C)C)cc3n(CC(=O)NC#N)c12 [Compound 43] | D (“D” >7° C.) | < 20 µM |  | 
CCc1cccc2c(=O)c3ccc(C)cc3n(CC(=O)O)c12 [Compound 38] | B (“B” = 0-2° C.) | > 300 µM |  | 
CN(C)c1c(Cl)ccc2c(=O)c3cc(Cl)c(Nc4c(F)cccc4F)cc3n(CC(=O)O)c12 [Compound 75] | D (“D” >7° C.) | < 20 µM | > 50 | < 50
CN(C)c1c(Cl)ccc2c(=O)c3ccc(-n4cccc4)cc3n(CC(=O)O)c12 [Compound 7] | D (“D” >7° C.) | < 20 µM | > 50 | < 50
CCc1ccc2c(=O)c3ccc(Cl)c(N(C)C)c3n(CC(=O)O)c2c1 [Compound 37] | D (“D” >7° C.) | < 20 µM | > 50 | < 50
CN(C)c1c(Cl)ccc2c(=O)c3ccc(-c4cnoc4)cc3n(CC(=O)O)c12 [Compound 13] | D (“D” >7° C.) |  | > 50 | < 50
COc1c(Cl)ccc2c(=O)c3ccc(F)cc3n(CC(=O)O)c12 [Compound 67] | C (“C” = 2-7° C.) | > 300 µM |  | > 150
Cc1ccc2c(=O)c3ccc(C(F)(F)F)c(N(C)C)c3n(CC(=O)O)c2c1 [Compound 26] | B (“B” = 0-2° C.) | > 300 µM |  | 

SMILES | WT_DSF_hSWAT Tm Shift (° C.) (hSTING-R232 (aa140-379)) | IC50 [1] | Emax [2] [%] | IC50 [2] [µM]
CN(C)c1c(Cl)ccc2c(=O)c3cc(Cl)c(Br)cc3n(CC(=O)O)c12 [Compound 3] | C (“C” = 2-7° C.) | 20 to 100 µM | > 50 | < 50
CN(C)c1c(Cl)ccc2c(=O)c3cc(Cl)c(C(C)(C)C#N)cc3n(CC(=O)O)c12 [Compound 87] | D (“D” >7° C.) | < 20 µM | > 50 | < 50
CN(C)c1c(Cl)ccc2c(=O)c3ccc(-c4ccn(C(=O)OC(C)(C)C)c4)cc3n(CC(=O)O)c12 [Compound 17] | D (“D” >7° C.) | < 20 µM | > 50 | < 50
CN(C)c1c(Cl)ccc2c(=O)c3ccc(C4=CCOC4)cc3n(CC(=O)O)c12 [Compound 16] | D (“D” >7° C.) | < 20 µM | > 50 | < 50
C=Cc1c(Cl)ccc2c(=O)c3ccc(C)cc3n(CC(=O)O)c12 [Compound 49] | D (“D” >7° C.) | 20 to 100 µM |  | 
Cc1ccc2c(c1)c(=O)c1ccc(Cl)c(N(C)C)c1n2CC(=O)O [Compound 31] | C (“C” = 2-7° C.) | 100 to 300 µM and 20 to 100 µM | > 50 | 50 to 100
CCc1c(Cl)ccc2c(=O)c3ccc(C)cc3n(CC(=O)O)c12 [Compound 48] | D (“D” >7° C.) | 20 to 100 µM |  | 
CN(C)c1c(Cl)ccc2c(=O)c3ccc(C(C)(C)C)cc3n(CC(=O)NS(=O)(=O)C3CC3)c12 [Compound 42] | D (“D” >7° C.) | < 20 µM |  | 
Cc1cc2c(cc1Cl)c(=O)c1ccc(Cl)c(N(C)C)c1n2CC(=O)O [Compound 33] | C (“C” = 2-7° C.) |  | > 50 | < 50
COc1c(Cl)ccc2c(=O)c3ccc(C4=CCN(C(=O)OC(C)(C)C)C4)cc3n(CC(=O)O)c12 [Compound 41] | D (“D” >7° C.) | 20 to 100 µM |  | 
COc1c(Cl)ccc2c(=O)c3ccc(C4=CCNC4)cc3n(CC(=O)O)c12 [Compound 40] | C (“C” = 2-7° C.) | > 300 µM |  | 
Cc1noc(C)c1-c1ccc2c(=O)c3ccc(Cl)c(N(C)C)c3n(CC(=O)O)c2c1 [Compound 12] | C (“C” = 2-7° C.) | 20 to 100 µM |  | 
Cc1ccc2c(=O)c3ccc(Cl)c(N(C)C)c3n(CC(=O)NC#N)c2c1 [Compound 45] | C (“C” = 2-7° C.) | 20 to 100 µM |  | 
CN(C)c1c(Cl)ccc2c(=O)c3ccc(-c4ccco4)cc3n(CC(=O)O)c12 [Compound 50] | D (“D” >7° C.) | 20 to 100 µM |  | 
COc1c(Cl)ccc2c(=O)c3ccc(C4=CCC(N5CCN(C)CC5)CC4)cc3n(CC(=O)O)c12 (centres unmarked) [Compound 28] | C (“C” = 2-7° C.) | 20 to 100 µM |  | 
CCc1cc2c(cc1Cl)c(=O)c1ccc(Cl)c(N(C)C)c1n2CC(=O)O [Compound 93] | C (“C” = 2-7° C.) |  | > 50 | < 50
Cc1ccc2c(=O)c3ccc(Cl)c(N(C)C)c3n(CC(=O)NS(=O)(=O)C3CC3)c2c1 [Compound 44] | D (“D” >7° C.) | 20 to 100 µM |  | 
